{"source": "patent US12728156B2", "about": "“Tumor cell-derived exosomes and method of treating colorectal cancer” (REGENTS OF THE UNIVERSITY OF MINNESOTA, priority 2020, dated 2026)", "key": {"CT26 tumors": {"tested_on": "CT26 tumors", "test": "Mass cytometry immune profiling of treated CT26 tumors", "format": "in vivo, mice", "source_text": "FIGS. 18A-18I show the tumor immunological response to 5-FU and anti-4-1BB treatments in CT26 tumors. […] PD-L1, Ki-67, CD80, and CD86 expression were quantified in whole tumor tissue. […] See also FIGS. 25-27.\nFIGS. 27A-27H show the tumor immunological response to 5-FU and anti-PD-1 treatments in CT26 tumors. Related to FIG. 18.\nTumor samples were collected and digested using standard flow cytometry procedure. A total of 3 million single cells were used for each mass cytometry staining. In brief, the single cell pellets were first incubated with Cell-ID Cisplatin with a final concentration of 5 μM for 5 min at RT to identify dead cells. Cells were then washed and blocked by Fc-receptor blocking solution. Cell membrane staining was then performed with metal-conjugated antibodies for 30 min at RT. After staining, cells were fixed and permeabilized. The intracellular staining antibodies were then added and incubated for 45 min at RT. Finally, cells were labeled with 1 ml 1,000× diluted 125 μM Cell-ID intercalator-Ir to stain all cells in MaxPar Fix and Perm Buffer overnight at 4° C. EQ Four Element Calibration Beads with the reference EQ passport P13H2302 were added to each staining tube right before data acquisition by a CyTOF 2 mass cytometer. The mass cytometry data were then normalized and exported for gating on alive single cells, which were then imported to the Cytobank software. A t-SNE analysis was performed with default parameters (perplexity, 30; iterations, 1,000) on all cell types in tumor samples."}, "T cells": {"tested_on": "T cells", "test": "T cell depletion in naïve mice", "format": "in vivo", "method": "FIGS. 23A-23D show the T cell depleting effects of 5-FU and anti-CD3 treatment. Related to FIGS. 14 and 16-18.\nWe tested the effects of 5-FU treatment and 5-FU and anti-4-1BB combination treatment on T cell depletion in vivo. Intraperitoneal administration of anti-CD3 treatment (clone: 17A2, BioXcell, 5 mg/kg every 3 days) was given to induce T cell depletion in mice. One dose of 5-FU (150 mg/kg) or 5-FU (150 mg/kg) and anti-4-1BB (5 mg/kg) combination treatment was given intraperitoneally in naïve mice. Mice were sampled on days 2, 4, 7, and 9 after treatment for quantifying T cells in lymph nodes, spleen, bone marrow, and blood circulation."}, "[1]": {"test": "5-FU toxicity evaluation (body weight, diarrhea score)", "format": "in vivo, mice", "conditions": "monotherapy", "method": "FIGS. 24A-24D show the side effects of different treatments. Related to FIG. 16. FIGS. 24A-24B show mouse body weight, which was measured on day 12, 24, and 32 during treatment. […] FIGS. 24C-24D show the results of a diarrhea assessment, which was performed at the endpoint of mice follow-up to evaluate the side effects on mouse intestine.\nToxicity is a primary concern for cancer treatments, especially in combination therapy. We took this into account by evaluating the side effects of each treatment.\nWe recorded animal body weight and diarrhea scores after treatments. Mice were weighed on day 12, 24, and 32 after treatment. The diarrhea score was assessed at the endpoint of each treatment by using a 4-point scoring system: 0=normal stool; 1=slight diarrhea (soft formed stool without perianal staining of the coat); 2=moderate diarrhea (unformed stool with moderate perianal staining of the coat); and 3=severe diarrhea (watery stool with severe perianal staining of the coat) (Song et al., 2013)."}, "CT26 and MC38 tumors": {"tested_on": "CT26 and MC38 tumors", "test": "Established tumor model, 5-FU and anti-4-1BB schedules", "conditions": "monotherapy"}, "[2]": {"tested_on": "miR-424 levels in T-cells and DCs", "test": "CT26 tumor cells co-cultured with naïve T-cells and DCs, miR-424 level", "format": "cell-based, mouse", "conditions": "co-culture with CT26 tumor cells; EV production blocked", "method": "miR-424 levels were analyzed across different samples, including tumor cells, immune cells, and EVs (FIG. 3A). To determine whether EVs can be up-taken by T-cells and DCs, CT26-WT cell line-derived EVs were stained with Dio dye and incubated with mouse naïve T-cells and DCs. Images taken using confocal microscopy confirmed the presence of Dio labeled EVs inside the T-cells and DCs (FIG. 3B). Next, CT26 tumor cells were co-cultured with naïve T-cells and DCs, which lead to a significant increase in miR-424 levels in both T-cells and DCs (FIG. 3C). Importantly, this increase in miR-424 could be neutralized by blocking the production of EVs in the co-culture system using GW4869 (FIG. 3C). To determine whether this tumor-derived EVs were being engulfed by the immune cells, CD63-GFP transfected CT26 tumor cells were injected into mice to establish a subcutaneous tumor model. […] Next, we sought to determine whether these effects could be eliminated by knocking out miR-424 in tumors. To this end, T-cells and DCs were isolated from the spleens of healthy mice, and of mice with wild-type tumors or miR-424 knockout (KO) tumors using flow cytometry sorting. miR-424 level was measured in the sorted T-cells and DCs by qPCR. […] Next, to study the impact of EV miR-424 expression on T-cell co-stimulation, the Jurkat cell and Raji cell conjugation assays were used. […]"}, "IL-2 production": {"tested_on": "IL-2 production", "test": "Jurkat-Raji conjugation system co-cultured with human CRC derived organoids", "format": "cell-based", "conditions": "EVs secretion blocked in the co-culture system", "method": "miR-424 levels were analyzed across different samples, including tumor cells, immune cells, and EVs (FIG. 3A). To determine whether EVs can be up-taken by T-cells and DCs, CT26-WT cell line-derived EVs were stained with Dio dye and incubated with mouse naïve T-cells and DCs. Images taken using confocal microscopy confirmed the presence of Dio labeled EVs inside the T-cells and DCs (FIG. 3B). Next, CT26 tumor cells were co-cultured with naïve T-cells and DCs, which lead to a significant increase in miR-424 levels in both T-cells and DCs (FIG. 3C). Importantly, this increase in miR-424 could be neutralized by blocking the production of EVs in the co-culture system using GW4869 (FIG. 3C). To determine whether this tumor-derived EVs were being engulfed by the immune cells, CD63-GFP transfected CT26 tumor cells were injected into mice to establish a subcutaneous tumor model. […] To this end, T-cells and DCs were isolated from the spleens of healthy mice, and of mice with wild-type tumors or miR-424 knockout (KO) tumors using flow cytometry sorting. miR-424 level was measured in the sorted T-cells and DCs by qPCR. […]\nThe Jurkat-Raji cells conjugation system was used for understanding the impacts of human tumor organoid-derived EVs on co-stimulation as well. […] Concentration of IL-2 was quantified in the co-culture system."}}, "data": [{"compound": "O=c1[nH]cc(F)c(=O)[nH]1", "note": "[5-FU, 5-fluorouracil]", "values": [{"measurement": "frequency of MDSCs", "setting": "CT26 tumors; 5-FU monotherapy and combination treatment", "result": "decreased"}, {"measurement": "CD80 expression and MDSCs in tumor tissue", "setting": "CT26 tumors; 5-FU treatment", "result": "upregulated CD80 expression and depleted MDSCs"}, {"measurement": "T-cell population in the tumor microenvironment", "setting": "CT26 tumors; 5-FU treatment", "result": "suppressed the T-cell population"}, {"measurement": "T cell depletion", "setting": "T cells", "result": "depleted T cells in lymphatic organs, blood circulation, and bone marrow"}, {"measurement": "time to recovery of the T cell population", "setting": "T cells; after 5-FU treatment", "result": "around 9 days"}, {"measurement": "side effects", "setting": "[1]", "result": "severe body weight loss and diarrhea"}, {"measurement": "tumor growth and survival time", "setting": "CT26 and MC38 tumors", "result": "delayed tumor development"}]}, {"compound": "O=C(/C=C/c1ccc(/C=C/C(=O)Nc2ccc(C3=NCCN3)cc2)cc1)Nc1ccc(C2=NCCN2)cc1", "note": "[GW4869]", "values": [{"measurement": "increase in miR-424 levels in T-cells and DCs", "setting": "[2]", "result": "neutralized"}, {"measurement": "suppression of IL-2 production by organoids", "setting": "IL-2 production", "result": "neutralized"}]}]}
